This note sets out measurements from patent publication US20090326008A1, “NF-kappa B Inhibitor” (priority 2006, published 2009).

What all share (assay type): cell-based, human
One experiment deals with NF-κB. Kind of experiment: NF-kappaB reporter assay (pNF-kappaB-SEAP) in IL-1β-stimulated MKN-45 cells. Particulars: IL-1β 2 ng/mL for 6 hours, DMSO (0.05%) control = 1.00, triplicate. The method, then:
pNF-kappaB-SEAP was obtained from Clonetech Laboratories Inc.
Cryopreserved MKN-45 cells (product of JCRB (Japanese Collection of Research Bioresources)) were thawed and cultured in a standard medium in an incubator (37° C., 5% CO2). Every three to five days, the cells were recovered by treatment with Trypsin-EDTA, then adequately diluted and subcultured. MKN-45 cells subcultured two or more times with a survival rate of 95% or more were used in each experiment.
The subcultured MKN-45 cells were harvested using Trypsin-EDTA solution, and the number of viable cells was counted. The cells were suspended in a standard medium to yield a 1.5×10^5 cells/mL suspension. A 24-well plate was seeded with 500 μL/well of the cell suspension, and the cells were cultured in an incubator (37° C., 5% CO2).
The day after seeding, transfection was performed according to the following protocol.
(4.1) Preparation of Plasmid Solution 4 μL of 0.1 μg/μL pNFkappaB-SEAP was placed into each well and diluted with 50 μL of OPTI-MEM I (product of Invitrogen Japan K.K.) by mixing by inversion.
1 μL of Lipofectamine 2000 reagent (product of Invitrogen) was placed into each well and diluted with 50 μL of OPTI-MEM I (product of Life Technologies Inc.) by mixing by inversion. The mixture was allowed to stand at room temperature for 5 to 10 minutes to prepare a Lipofectamine dilution.
The plasmid solution and the Lipofectamine dilution were mixed by inversion and allowed to stand at room temperature for 20 to 30 minutes to prepare a transfection mixture.
The culture medium was removed from the 24-well plate by suction. While care was taken not to dry the subcultured MKN-45 cells, the inner surface of the wells was washed with 1 mL/well of PBS. After the medium was replaced with 500 μL/well of OPTI-MEM I (product of Life Technologies Inc.), 100 μL/well of the transfection mixture was added, and the cells were cultured in a incubator (37° C., 5% CO2). After about 5 hours of incubation, the medium was replaced with a standard medium, and the cells were further cultured in a CO2 incubator (37° C., 5% CO2) until the following day.
On the following morning, the culture medium supernatant was removed by suction and replaced with 1 mL/well of the test compound solution or control solution diluted with a standard medium. The cells were cultured in a CO2 incubator (37° C., 5% CO2) for 1 hour. Each experiment was performed in triplicate.
200 ng/mL IL-1β was added in an amount of 10 μL/well (final concentration: 2 ng/mL), and the cells were cultured in a CO2 incubator (37° C., 5% CO2) for 6 hours.
A reporter assay was performed using Reporter Assay Kit-SEAP (product of Toyobo Co.) according to the manufacturer's protocol.
More specifically, 500 μL of the culture broth was transferred into a tube and centrifuged at 15,000 rpm for 5 minutes at 4° C. The supernatant was transferred into a 96-well white plate. The positive control included in the Reporter Assay Kit-SEAP, and a standard medium as a blank control were each added in an amount of 20 μL/well to the 96-well white plate. Further, an inhibitor for inhibiting the AP activity of the MKN-45 cells was added in an amount of 20 μL/well. After sealing the plate, the contents were mixed well. The plate was placed into a CO2 incubator (37° C., 5% CO2) and allowed to stand for 30 minutes. Subsequently, the plate was allowed to stand on ice for 1 minute, followed by addition of 160 μL/well of Lumi-Phos Plus (a chemiluminescent substrate, product of Lumigen Inc.). The plate was sealed again and placed in a light-shielded state into a CO2 incubator (37° C., 5% CO2). After the plate was allowed to stand for 15 to 30 minutes, luminescence was measured for about 5 to about 10 seconds using a luminometer.
The results of the reporter assay were expressed as Percent Control (or Inhibition), calculated according to the following formulae. The luminescence of each sample was calculated by subtracting the average of blank samples.
In general terms: A reporter such as luciferase makes a cellular process visible.

The next experiment has as its system TNFα. Kind of experiment: Relative TNFα mRNA expression in IL-1β-stimulated MKN-45 cells (real-time PCR). The note with it: IL-1β-stimulated DMSO-treated cells = 100%, ACTB reference. The method, then:
(§1) RNA was extracted from the cells used in Example 2 according to the manufacturer's protocol for ABI Prism 6100 Nucleic Acid PrepStation (a nucleic acid isolation system, product of Applied Biosystems). More specifically, after removal of the culture supernatant and washing with 1 mL of PBS, 250 μL of Nucleic Acid Purification Lysis Solution (Part No. 4305895, Applied Biosystems) was added, and then agitated using a shaker for 2 to 3 minutes. The Lysis Solution containing the cell lysate was collected, and the total amount was transferred to the wells of RNA Purification Tray (Part No. 4305673, Applied Biosystems), which had been pre-wet with 40 μL of Nucleic Acid Purification Wash Solution I (Part No. 4305891, Applied Biosystems) beforehand. Aspiration (20% pressure) was performed for 2 minutes to adsorb the sample onto the RNA Purification Tray, followed by sequentially adding and aspirating (20% pressure, 2 min.) 500 μL of Wash Solution I, Nucleic Acid Purification (Part No. 4305891, Applied Biosystems), 400 μL of Wash Solution II, Nucleic Acid Purification (Part No. 4305890, product of Applied Biosystems), 400 μL of the Wash Solution II, and 300 μL of the Wash Solution II in that order. Aspiration (90% pressure) was performed for 5 minutes to remove the water content from the RNA Purification Trays. After addition of 150 μL of Elution Solution, Nucleic Acid Purification (Part No. 4305893, product of Applied Biosystems), aspiration (20% pressure) was performed for 2 minutes, while collecting the outflow. This was used as collected RNA solution.
(§2) Absorbance of the collected RNA solution at 260 nm was measured using a microplate spectrophotometer (“SpectraMax Plus”, product of Molecular Devices) with an analysis software (“SOFTmaxPRO ver.3.1.2”, product of Molecular Devices), and the RNA concentration was determined from the absorbance. Likewise, absorbance at 280 nm was measured and the purity of the RNA was determined using the analysis software.
(§3) cDNA was synthesized according to the manufacturer's protocol for TaqMan® Reverse Transcription Reagents (Part No. N808-0234, product of Applied Biosystems). More specifically, about 0.5 μg of RNA, 2.5 μL of 10×RT buffer, 5.5 μL of MgCl2 solution, 5 μL of dNTP mixture, 1.25 μL of random hexamer (primers), 0.5 μL of RNase inhibitor, and 0.63 μL of MultiScribe Reverse Transcriptase (product of Applied Biosystems) were added to each collected RNA sample in a tube, and DEPC-treated water was added to make a total volume of 25 μL and stirred. A reaction consisting of 25° C. for 10 minutes, 48° C. for 30 minutes, and 95° C. for 5 minutes was performed using a PCR thermal cycler (“TaKaRa PCR Thermal Cycler Dice”, product of Takara Bio Inc.) to prepare a cDNA solution.
(§4) PCR was performed according to the manufacturer's protocol for TaqMan® Gene Expression Assays (product of Applied Biosystems). More specifically, 5 μL of TaqMan® Fast Universal PCR Master Mix (product of Applied Biosystems), 0.5 μL of TaqMan® Gene Expression Assays for the target gene (gene-specific probe and primer sets, product of Applied Biosystems), and 4.5 μL of the above-obtained cDNA solution were added to each sample and stirred. A PCR reaction consisting of heating at 95° C. for 20 seconds, followed by 40 cycles consisting of heating at 95° C. for 3 seconds and annealing and extension at 60° C. for 30 seconds was performed using a real-time PCR device (“Applied Biosystems 7500 Real-Time PCR System”) with SDS v1.4 Software (product of Applied Biosystems). Threshold cycle (Ct) values were calculated using the software.
(§5) The Assay IDs of the TaqMan® Gene Expression Assays for the target genes used are as follows:
(§6) The expression level of each gene was determined according to the following formula using the level of ACTB as a reference standard.
(§7) (Relative mRNA expression level)=2̂−{(Ct value of the target gene)−(Ct value of ACTB)} […]
A general note: Real-time PCR tracks product formation cycle by cycle.

Another experiment deals with COX2. Kind of experiment: Relative COX2 mRNA expression in IL-1β-stimulated MKN-45 cells (real-time PCR). The note with it: IL-1β-stimulated DMSO-treated cells = 100%, ACTB reference. The method, then: as §1, §2, §3, §4, §5, §6, §7
The test system of the next experiment is IL-8. Kind of experiment: Relative IL-8 mRNA expression in IL-1β-stimulated MKN-45 cells (real-time PCR). The note with it: IL-1β-stimulated DMSO-treated cells = 100%, ACTB reference. The method, then:
as §1, §2, §3, §4, §5, §6, §7

SMILES strings stand for the structures.

Consider `COC(=O)c1ccc(CN2C(=O)CCc3c(CC4SC(=O)NC4=O)ccc(OC)c32)cc1` (stereo not shown) [Test Compound 025], for which the “NF-kappaB reporter (SEAP luminescence) IL-1b(+) mean, relative to control” value (from here on “NF-kappaB reporter … relative to control”) in the experiment on NF-κB came to 0.58. Moreover, the “TNFa relative mRNA expression level, Mean” value in the experiment on TNFα came to 53.0%. The “COX2 relative mRNA expression level, Mean” value in the experiment with COX2 turned out to be 38.3%. The “IL-8 relative mRNA expression level, Mean” value in the experiment with IL-8 amounted to 59.9%.
`COc1ccc(CC2SC(=O)NC2=O)c2c1N(Cc1ccc(Br)cc1)C(=O)CC2` (stereo not shown) [Test Compound 123]: in the experiment on NF-κB, the “NF-kappaB reporter … relative to control” value was 0.46. Besides, the “TNFa relative mRNA expression level, Mean” value in the experiment on TNFα was determined as 28.5%. In the experiment with COX2, the “COX2 relative mRNA expression level, Mean” value came to 28.6%. For the same molecule, the “IL-8 relative mRNA expression level, Mean” value with IL-8 was 48.3%.
The like results for `COc1ccc(CC2SC(=O)NC2=O)c2c1N(Cc1ccc(C#N)cc1)C(=O)CC2` (stereo not shown) [Test Compound 125] were, in that order, 0.55, 52.5%, 29.2% and 45.4%.
Turning to `COc1ccc(CC2SC(=O)NC2=O)c2c1N(Cc1ccc(OCc3ccccc3)cc1)C(=O)CC2` (stereo not shown) [Test Compound 127], the “NF-kappaB reporter … relative to control” value with NF-κB came to 0.60. In addition, in the experiment on TNFα, the “TNFa relative mRNA expression level, Mean” value is on record as 49.8%. In addition, in the experiment with COX2, the “COX2 relative mRNA expression level, Mean” value turned out to be 31.0%. Besides, the “IL-8 relative mRNA expression level, Mean” value in the experiment on IL-8 is 44.8%.
For `COc1ccc(CC2SC(=O)NC2=O)c2c1N(Cc1ccc(NS(C)(=O)=O)cc1)C(=O)CC2` (stereo not shown) [Test Compound 131] the same measures were 0.49, 71.3%, 80.9% and 77.9%.
For `O=C1NC(=O)C(Cc2cccc3c2CCC(=O)N3Cc2ccc(Br)cc2)S1` (stereo not shown) [Test Compound 134], the “NF-kappaB reporter … relative to control” value in the experiment on NF-κB stood at 0.46. In addition, the “TNFa relative mRNA expression level, Mean” value in the experiment with TNFα came to 36.6%. Further, the “COX2 relative mRNA expression level, Mean” value in the experiment on COX2 is 33.1%. Moreover, the “IL-8 relative mRNA expression level, Mean” value in the experiment on IL-8 is on record as 55.4%.
The like results for `O=C1NC(=O)C(Cc2cccc3c2CCC(=O)N3c2ccccc2)S1` (stereo not shown) [Test Compound 150] were, in that order, 0.71, 53.9%, 53.7% and 52.0%.
For `CC(C)(C)OC(=O)N1CCC(CCN2C(=O)CCc3c(CC4SC(=O)NC4=O)cccc32)CC1` (stereo not shown) [Test Compound 159] the same measures were 0.64, 33.5%, 27.7% and 34.0%.
`COc1ccc(CC2SC(=O)NC2=O)c2c1N(CC1CCN(c3ccc(C)cc3)CC1)C(=O)CC2` (stereo not shown) [Test Compound 164]: the “NF-kappaB reporter … relative to control” value in the experiment on NF-κB is 0.78. For the same molecule, in the experiment with TNFα, the “TNFa relative mRNA expression level, Mean” value is listed as 30.0%. In addition, the “COX2 relative mRNA expression level, Mean” value in the experiment with COX2 worked out at 21.7%. Besides, the “IL-8 relative mRNA expression level, Mean” value in the experiment on IL-8 was found to be 24.8%.
For `O=C1NC(=O)C(Cc2ccc3c(c2)CCC(=O)N3Cc2ccc(-c3ccccc3)cc2)S1` (stereo not shown) [Test Compound 186] the same measures were 0.67, 70.8%, 29.7% and 67.7%.
For `COc1ccc(CC2SC(=O)NC2=O)c2c1N(Cc1ccc(NC(=O)C3CCCCC3)cc1)C(=O)CC2` (stereo not shown) [Test Compound 225], the “NF-kappaB reporter … relative to control” value in the experiment on NF-κB is reported as 0.49. In addition, the “TNFa relative mRNA expression level, Mean” value with TNFα was found to be 44.6%. For the same molecule, in the experiment with COX2, the “COX2 relative mRNA expression level, Mean” value worked out at 32.9%. Further, in the experiment with IL-8, the “IL-8 relative mRNA expression level, Mean” value is given as 50.0%.
For `CCCCCOC(=O)Nc1ccc(CN2C(=O)CCc3c(CC4SC(=O)NC4=O)ccc(OC)c32)cc1` (stereo not shown) [Test Compound 232] the same measures were 0.71, 28.9%, 29.9% and 33.8%.
The like results for `COc1ccc(CC2SC(=O)NC2=O)c2c1N(Cc1ccc(NC(=O)Oc3ccc(C)cc3)cc1)C(=O)CC2` (stereo not shown) [Test Compound 233] were, in that order, 0.85, 28.9%, 24.9% and 30.4%.
